pIC50: −log10 of the molar value.
Legend:
BRD4 and c-Myc = experiment: Immunofluorescence of excised cancer tissue (DAPI, anti-BRD4, anti-c-Myc); type: in vivo, mouse; settings: FIG. 33
Method: (§1) The control group was administered saline (10 mg/kg) once every 3 days for 15 days through the tail vein (total 4 administrations). The comparison group was administered ARV-771 (10 mg/kg) once every 3 days for 15 days through the tail vein (total 4 administrations). The example group was administered ECMal-PROTAC 10 mg/kg (wquiv. to ARV-771) of example 1 once every 3 days for 15 days through the tail vein (total 4 administrations).
FIG. 33 is an image taken with a confocal laser scanning microscope after staining cancer tissue excised from the control group (Control, Saline), the comparison group (ARV-771, intravenous injection), and the example group (ECMal-PROTAC, intravenous injection) with DAPI, anti-BRD4, and anti-c-Myc.

4T1 cells = experiment: CCK-8 assay, toxicity on cancer cells; type: cell-based, mouse; settings: CCK-8, 48 hours
Method: The toxicity of ARV-771 and ECMal-PROTAC on cancer cells was analyzed by the CCK-8 (cell counting kit-8) assay. 4T1 cells were dispensed into a 96-well culture plate at 3×10^3 cells per well. They were cultured for 24 hours at 37° C. and 5% carbon dioxide atmosphere. The cells were treated with different concentrations of ARV-771 (0.01 to 100 μM), the complex for cancer targeting (ECMal-PROTAC) of example 1 (0.01 to 100 μM), and the complex for cancer targeting (Mal-PROTAC) of example 2 (0.01 to 100 μM) separately, and cultured for 48 hours. After exposing each well to 10% CCK-8-containing culture media for 30 minutes, the viability of 4T1 cells treated with ARV-771 or 4T1 cells treated with ECMal-PROTAC or Mal-PROTAC was analyzed with a microplate reader. The change in cell viability according to the concentration of ARV-771 or ECMal-PROTAC or Mal-PROTAC was calculated using GraphPad Prism 8 software (GraphPad Software, San Diego, CA, USA) by fitting the IC50 (haf-maximal inhibitory concentration) value.

BRD4 = target: T1, BRD4 (Mus musculus, UniProt Q9ESU6); experiment: Western blot, BRD4 degradation in 4T1 cells; type: cell-based; settings: 24 hours
T1 construct: Western blot after PROTAC (ARV-771 release, VHL recruiting)
Method: (§2) Accordingly, Western blot analysis was performed to confirm the anticancer ability by evaluating the presence or absence of degradation of BRD4 and other related proteins (e.g., c-Myc and Bcl-2) when cancer cells were treated with the complex for cancer targeting (ECMal-PROTAC) of example 1. The complex for cancer targeting (ECMal-PROTAC) of example 1 and ARV-771 were prepared as samples.
(§3) First, 1×10^5 4T1 cells were dispensed into each well of a 6-well culture plate and cultured for 24 hours at 37° C. and 5% carbon dioxide atmosphere. The cell culture medium was supplemented with various concentrations of ARV-771 (0 to 10 μM) or the complex for cancer targeting (ECMal-PROTAC) of example 1 (0 to 10 μM), and cultured at 37° C. for 24 hours. After the culture was completed, the cells were washed 3 times with PBS, and lysed with a lysis buffer containing 1% […]. Cell debris from the recovered lysate was removed by centrifugation at 12,000 rpm for 25 minutes. After recovering the supernatant, the protein amount was measured using a BCA kit. The supernatant was loaded onto a 10% sodium dodecyl sulfate-polyacrylamide gel. Electrophoresis (SDS-PAGE) was performed, followed by blotting onto a polyvinylidene difluoride (PVDF) membrane. After blotting, the PVDF membrane was treated with 5% BSA-containing tris buffered saline containing 0.1% Tween 20 (TBS-T) for 2 hours to suppress the non-specific binding of IgG (immunoglobulin G). It was immediately exposed to a rabbit anti-mouse primary antibody (1,000:1). After treating at 4° C. for 24 hours, the PVDF membrane was washed 3 times with TBS-T and further incubated with an HRP-conjugated mouse anti-rabbit IgG antibody at room temperature for 1 hour. The immunoreactive bands on the PVDF membrane were analyzed through an ECL (enhanced chemiluminescence) system.

liver tissue = experiment: TUNEL analysis of liver tissue; type: in vivo, mouse; settings: administered alone (comparison group)
[1] = target: T2, BSA (bovine serum albumin) (Bos taurus, UniProt P02769); experiment: In vitro binding of ECMal-PROTAC to albumin (thiol-maleimide reaction), RP-HPLC; settings: ARV-771 140 μM, BSA 200 μM; mixed for more than 60 minutes
T2 construct: free Cys34 thiol reacts with maleimide
T2 sequence (P02769 25-607): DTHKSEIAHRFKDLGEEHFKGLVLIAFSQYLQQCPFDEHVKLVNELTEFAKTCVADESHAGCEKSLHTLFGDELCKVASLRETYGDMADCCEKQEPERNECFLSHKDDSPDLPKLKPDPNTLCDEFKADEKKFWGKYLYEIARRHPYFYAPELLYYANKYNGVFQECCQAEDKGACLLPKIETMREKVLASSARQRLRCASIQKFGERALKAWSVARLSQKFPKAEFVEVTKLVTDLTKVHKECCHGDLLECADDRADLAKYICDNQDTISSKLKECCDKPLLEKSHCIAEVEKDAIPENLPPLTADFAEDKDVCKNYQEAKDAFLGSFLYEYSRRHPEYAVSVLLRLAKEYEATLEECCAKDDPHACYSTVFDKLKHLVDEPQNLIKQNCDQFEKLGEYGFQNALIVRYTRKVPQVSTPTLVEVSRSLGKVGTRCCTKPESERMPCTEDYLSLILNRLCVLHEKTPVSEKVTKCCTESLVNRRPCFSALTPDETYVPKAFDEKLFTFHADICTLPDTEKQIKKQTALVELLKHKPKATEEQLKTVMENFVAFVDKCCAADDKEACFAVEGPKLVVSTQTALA
Method: The binding rate of ECMal-PROTAC from example 1 and albumin was confirmed through RP-HPLC. Specifically, a BSA solution (200 μM) diluted with PBS was co-incubated by mixing it with an ECMal-PROTAC aqueous solution (140 μM) of example 1 at a 1:1 volume ratio. The culture was collected at incubation times of 0 minutes, 5 minutes, 30 minutes, and 60 minutes. It was quenched with mercaptoethanol, and HPLC spectra for each sample were acquired through concentration gradient of the eluent (ACN/H2O, 20/80 to 80/20 (v/v), 30 minutes).
To verify the albumin binding ability of the complex for cancer targeting (ECMal-PROTAC) of example 1, the mixture of BSA and the complex for cancer targeting (ECMal-PROTAC) was analyzed by LC-MS spectrum, and compared with the LC-MS spectrum of free BSA.
FIG. 4 is the HPLC spectrum of a mixture of BSA and the complex for cancer targeting (ECMal-PROTAC). According to this, it can be seen that BSA and the complex for cancer targeting (ECMal-PROTAC) rapidly bind through a thiol-maleimide click chemical reaction. To confirm the albumin binding ability of the complex for cancer targeting (ECMal-PROTAC) of example 1, bovine serum albumin (BSA), which has a structure similar to human serum albumin (HSA), was used for analysis.
At this time, the HPLC spectra were also analyzed for a co-incubation of ARV-771 (140 μM) and BSA solution (200 μM) mixed at a 1:1 volume ratio as a comparative example, and for the ECMal-PROTAC solution and BSA solution alone without any treatment of example 1.
From the HPLC results for the BSA and complex for cancer targeting (ECMal-PROTAC) mixture in Experimental Example 1 and the thiol-blocked BSA and complex for cancer targeting (ECMal-PROTAC) mixture in Experimental Example 2, the reduction in the HPLC peak area associated with the complex for cancer targeting (ECMal-PROTAC) was quantified.

[2] = tested on: organ tissue and cancer tissue; experiment: H&E histology of major organs and cancer tissue; type: in vivo, mouse; settings: excised after 15 days
Method: as §1
The control group, the comparison group, and the example group were euthanized after 15 days, and major organs (heart, liver, lung, spleen, kidney) and cancer tissue were excised.
Furthermore, to analyze cancer cell apoptosis, TUNEL (terminal deoxynucleotidyl transferase dUTP nick end labeling) analysis was performed on cancer tissue excised from the control group, the comparison group, and the example group. Next, histological analysis was performed by H&E (hematoxylin & eosin) staining of the major organ tissues and cancer tissue of each excised group.
According to FIG. 29, major organ tissue and cancer tissue were excised from the control group, the comparison group, and the example group after 15 days. The excised organ tissue and cancer tissue were stained with H&E (hematoxylin & eosin). The H&E stained tissue was observed using a BX51 optical microscope (Olympus, Tokyo, Japan) and a TCS SP8 confocal laser microscope.

4T1 tumor = experiment: In vivo anticancer efficacy, tumor size in 4T1 cancer animal model; parameters: species or system mouse; settings: 10 mg/kg, tail vein, once every 3 days for 15 days
Method: 5-week-old female Balb/c and Balb/c nu/nu mice were purchased from NaraBio, Inc (Seoul, Republic of Korea). The mice underwent a 2-week acclimatization period before the example. The mice were raised under free-feeding conditions in a breeding room maintained at a temperature of 22±2° C. and humidity of 40-60% during the example. The light and dark cycle was regulated at 12-hour intervals. All examples were conducted in compliance with the relevant laws and institutional guidelines of the KIST Institutional Animal Care and Use Committee (IACUC; Approval No.: 2021-143).
Cancer animal models were prepared by inoculating 1×10^6 4T1 cells into the left thigh of the mice, and raising them until the tumor volume reached 50-80 mm^3.
For the preparation of the control group, the comparison group, and the example group, mice were randomly divided into groups of 5.
as §1
(§4) Tumor size and body weight were measured every two days for the control group, the comparison group, and the example group.

[3] = Body weight and systemic side effects; type: in vivo, mouse; settings: 10 mg/kg, i.v., once every 3 days for 15 days
Method: as §1, §4

c-Myc = experiment: Western blot, c-Myc level in 4T1 cells; type: cell-based, mouse; settings: 0 to 10 μM, 24 hours
Method: as §2
as §3, with “After blotting, the PVDF membrane was treated with 5% BSA-containing tris buffered saline containing 0.1% Tween 20 (TBS-T) for 2 hours to suppress the non-specific binding of IgG (immunoglobulin G). It was immediately exposed to a rabbit anti-mouse primary antibody (1,000:1). After treating at 4° C. for 24 hours, the PVDF membrane was washed 3 times with TBS-T and further incubated with an HRP-conjugated mouse anti-rabbit IgG antibody at room temperature for 1 hour.” left out

Bcl-2 = experiment: Western blot, Bcl-2 level in 4T1 cells; type: cell-based, mouse; settings: 0 to 10 μM, 24 hours
Method: as §2
as §3, with “After blotting, the PVDF membrane was treated with 5% BSA-containing tris buffered saline containing 0.1% Tween 20 (TBS-T) for 2 hours to suppress the non-specific binding of IgG (immunoglobulin G). It was immediately exposed to a rabbit anti-mouse primary antibody (1,000:1). After treating at 4° C. for 24 hours, the PVDF membrane was washed 3 times with TBS-T and further incubated with an HRP-conjugated mouse anti-rabbit IgG antibody at room temperature for 1 hour.” left out

[4] = Particle size by DLS before and after binding to albumin; type: physicochemical; settings: BSA 200 μM and ECMal-PROTAC 140 μM in PBS, 1:1, 30 minutes
Method: A BSA solution (200 μM) diluted with PBS was co-incubated by mixing it with an ECMal-PROTAC aqueous solution (140 μM) of example 1 at a 1:1 volume ratio.

Cc1ncsc1-c1ccc([C@H](C)NC(=O)[C@@H]2C[C@@H](O)CN2C(=O)[C@@H](NC(=O)COCCCOCCNC(=O)C[C@@H]2N=C(c3ccc(Cl)cc3)c3c(sc(C)c3C)-n3c(C)nnc32)C(C)(C)C)cc1 [ARV-771, reference compound]
BRD4 degradation in cancer tissue (BRD4 and c-Myc): insufficient to induce apoptosis in cancer tissue
pIC50 (4T1 cells; Mus musculus, 4T1, FIGS. 15A and 15B, read-out: IC50 against cancer cells): 5.20
DC50 (BRD4; Western blot, read-out: DC50 (half-maximal degradation concentration), BRD4): 3.38 µM
effect on normal tissue and cancer tissue (liver tissue): affect both normal tissue and cancer tissue
interaction with BSA [1]: did not form an interaction
damage in cancer tissue (H&E) [2]: did not observe serious damage
damage in organ tissue (H&E) ([2]; liver, lung, spleen, kidney, heart): did not observe serious damage
cancer size vs control (saline) (4T1 tumor): no significant difference
increase of cancer size from Day 0 (4T1 tumor): 14.8 times
systemic side effects [3]: did not show serious systemic side effects
weight loss [3]: no significant weight loss was observed

Cc1ncsc1-c1ccc([C@H](C)NC(=O)[C@@H]2C[C@@H](OC(=O)CNC(=O)CCOCCOCCNC(=O)CCN3C(=O)C=CC3=O)CN2C(=O)[C@@H](NC(=O)COCCCOCCNC(=O)C[C@@H]2N=C(c3ccc(Cl)cc3)c3c(sc(C)c3C)-n3c(C)nnc32)C(C)(C)C)cc1 [Mal-PROTAC]
IC50 compared to native ARV-771 (4T1 cells): slight increase in IC50 compared to native ARV-771
c-Myc level (c-Myc): reduced expression
degradation of overexpressed BRD4 protein (BRD4; 0 to 10 μM): induce BRD4 deficiency
Bcl-2 level (Bcl-2): reduced expression

BSA: bovine serum albumin; 98%
average particle size [4]: 5.43±1.42 nm
